Series [1] addresses Platelet-derived growth factor receptor beta (Homo sapiens, UniProt P09619).
Series [2] concerns the target Mast/stem cell growth factor receptor Kit (Homo sapiens, UniProt P10721).
Series [3] addresses Vascular endothelial growth factor receptor 2 (Homo sapiens, UniProt P35968).
Another series relates to HepG2. Kind of series: Antiproliferative activity against human HepG2 cells after 72 hrs by MTT assay. To be noted: HepG2, 72 h. The format is functional, cell-based.
The nature of a further series: cells. To be noted: Homo sapiens, BGC, 72 h.
A further series relates to T-24. Kind of series: Antiproliferative activity against human T24 cells after 72 hrs by MTT assay. It counts as functional, cell-based. To be noted: T-24, 72 h. A general note: Formazan colour is commonly taken as a measure of viable cells.
The next series has as its system HT-29. The series is described as follows: cells. The conditions noted are these: Homo sapiens, HT-29, 72 h.
For series [4], the system named is BXPC-3. The series is described as follows: cells. The conditions noted are these: Homo sapiens, BXPC-3, 72 h.
For series [5], the target named is Vascular endothelial growth factor receptor 1 (Homo sapiens, UniProt P17948). Kind of series: Inhibition of VEGFR1 (unknown origin).
The nature of series [6]: Oral bioavailability in cynomolgus monkey. It counts as ADME, organism-based, Macaca fascicularis. To be noted: in vivo.
Series [7] addresses Vascular endothelial growth factor receptor 3 (Homo sapiens, UniProt P35916). The series is described as follows: Inhibition of VEGFR3 (unknown origin).
The subject of series [8] is BXPC-3. The series is described as follows: Ratio of sunitinib IC50 to compound IC50 for human BxPC3 cells. It counts as functional.

The values that follow come from ChEMBL document CHEMBL2429742, “Design, synthesis, and biological evaluation of novel 3-pyrrolo[b]cyclohexylene-2-dihydroindolinone derivatives as potent receptor tyrosine kinase inhibitors” (Bioorg Med Chem Lett, 2013).

Chain of Vascular endothelial growth factor receptor 2 (P35968 whole entry): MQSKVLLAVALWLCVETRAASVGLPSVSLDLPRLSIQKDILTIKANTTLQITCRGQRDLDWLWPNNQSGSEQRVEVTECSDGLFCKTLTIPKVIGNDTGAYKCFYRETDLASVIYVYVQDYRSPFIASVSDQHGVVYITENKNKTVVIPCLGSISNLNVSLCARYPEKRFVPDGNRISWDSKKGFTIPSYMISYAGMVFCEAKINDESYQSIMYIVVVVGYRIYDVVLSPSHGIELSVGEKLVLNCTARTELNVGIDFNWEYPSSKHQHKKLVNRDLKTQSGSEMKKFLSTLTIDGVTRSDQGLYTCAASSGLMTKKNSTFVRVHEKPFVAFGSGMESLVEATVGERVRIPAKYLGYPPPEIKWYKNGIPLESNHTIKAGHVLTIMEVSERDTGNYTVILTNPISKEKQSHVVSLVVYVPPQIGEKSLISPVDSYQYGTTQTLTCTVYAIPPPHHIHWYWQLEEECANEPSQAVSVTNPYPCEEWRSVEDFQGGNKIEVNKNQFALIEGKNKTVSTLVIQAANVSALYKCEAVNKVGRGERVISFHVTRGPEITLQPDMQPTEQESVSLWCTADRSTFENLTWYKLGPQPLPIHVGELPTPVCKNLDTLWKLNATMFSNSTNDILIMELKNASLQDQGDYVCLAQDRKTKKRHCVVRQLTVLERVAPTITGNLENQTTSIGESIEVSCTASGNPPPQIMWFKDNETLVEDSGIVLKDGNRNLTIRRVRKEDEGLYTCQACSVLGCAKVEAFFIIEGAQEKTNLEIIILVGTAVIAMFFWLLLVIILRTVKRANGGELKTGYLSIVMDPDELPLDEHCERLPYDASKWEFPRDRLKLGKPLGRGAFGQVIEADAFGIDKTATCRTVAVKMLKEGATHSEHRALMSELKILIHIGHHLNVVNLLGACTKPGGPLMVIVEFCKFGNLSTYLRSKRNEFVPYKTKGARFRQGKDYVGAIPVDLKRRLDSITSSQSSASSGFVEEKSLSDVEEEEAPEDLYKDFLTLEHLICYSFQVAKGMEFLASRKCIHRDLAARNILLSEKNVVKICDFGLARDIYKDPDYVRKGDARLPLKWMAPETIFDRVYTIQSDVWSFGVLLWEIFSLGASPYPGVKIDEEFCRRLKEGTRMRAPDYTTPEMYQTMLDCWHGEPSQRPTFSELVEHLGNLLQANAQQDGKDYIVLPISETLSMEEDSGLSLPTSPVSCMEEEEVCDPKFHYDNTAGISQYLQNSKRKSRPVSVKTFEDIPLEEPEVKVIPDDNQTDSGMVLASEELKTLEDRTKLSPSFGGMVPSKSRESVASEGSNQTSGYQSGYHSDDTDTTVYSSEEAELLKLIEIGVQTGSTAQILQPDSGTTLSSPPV
Chain of Mast/stem cell growth factor receptor Kit (P10721 whole entry): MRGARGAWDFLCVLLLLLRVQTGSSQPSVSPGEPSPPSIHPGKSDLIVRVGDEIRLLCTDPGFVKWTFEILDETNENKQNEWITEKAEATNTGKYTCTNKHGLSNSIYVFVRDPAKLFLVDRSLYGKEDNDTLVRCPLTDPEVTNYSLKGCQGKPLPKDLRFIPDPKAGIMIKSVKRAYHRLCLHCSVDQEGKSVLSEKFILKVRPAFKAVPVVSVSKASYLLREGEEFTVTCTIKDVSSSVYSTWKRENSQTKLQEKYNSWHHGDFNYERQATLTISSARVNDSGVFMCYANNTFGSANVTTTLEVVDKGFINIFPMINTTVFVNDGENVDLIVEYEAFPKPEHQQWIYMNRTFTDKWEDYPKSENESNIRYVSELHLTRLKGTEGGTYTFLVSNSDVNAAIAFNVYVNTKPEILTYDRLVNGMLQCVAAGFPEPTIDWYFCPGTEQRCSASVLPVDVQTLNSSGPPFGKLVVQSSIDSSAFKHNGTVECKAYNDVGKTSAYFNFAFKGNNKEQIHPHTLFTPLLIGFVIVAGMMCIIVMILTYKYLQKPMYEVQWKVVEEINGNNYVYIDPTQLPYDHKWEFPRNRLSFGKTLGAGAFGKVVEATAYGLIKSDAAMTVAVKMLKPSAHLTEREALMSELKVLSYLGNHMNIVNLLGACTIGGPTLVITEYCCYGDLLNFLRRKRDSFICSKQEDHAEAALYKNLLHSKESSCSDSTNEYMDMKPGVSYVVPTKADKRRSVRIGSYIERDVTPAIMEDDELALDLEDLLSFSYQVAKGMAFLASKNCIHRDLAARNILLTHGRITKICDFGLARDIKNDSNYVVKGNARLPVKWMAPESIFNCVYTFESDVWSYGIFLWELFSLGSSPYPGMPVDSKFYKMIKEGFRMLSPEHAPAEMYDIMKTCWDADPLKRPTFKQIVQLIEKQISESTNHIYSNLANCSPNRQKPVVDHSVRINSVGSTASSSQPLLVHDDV
Chain of Platelet-derived growth factor receptor beta (P09619 whole entry): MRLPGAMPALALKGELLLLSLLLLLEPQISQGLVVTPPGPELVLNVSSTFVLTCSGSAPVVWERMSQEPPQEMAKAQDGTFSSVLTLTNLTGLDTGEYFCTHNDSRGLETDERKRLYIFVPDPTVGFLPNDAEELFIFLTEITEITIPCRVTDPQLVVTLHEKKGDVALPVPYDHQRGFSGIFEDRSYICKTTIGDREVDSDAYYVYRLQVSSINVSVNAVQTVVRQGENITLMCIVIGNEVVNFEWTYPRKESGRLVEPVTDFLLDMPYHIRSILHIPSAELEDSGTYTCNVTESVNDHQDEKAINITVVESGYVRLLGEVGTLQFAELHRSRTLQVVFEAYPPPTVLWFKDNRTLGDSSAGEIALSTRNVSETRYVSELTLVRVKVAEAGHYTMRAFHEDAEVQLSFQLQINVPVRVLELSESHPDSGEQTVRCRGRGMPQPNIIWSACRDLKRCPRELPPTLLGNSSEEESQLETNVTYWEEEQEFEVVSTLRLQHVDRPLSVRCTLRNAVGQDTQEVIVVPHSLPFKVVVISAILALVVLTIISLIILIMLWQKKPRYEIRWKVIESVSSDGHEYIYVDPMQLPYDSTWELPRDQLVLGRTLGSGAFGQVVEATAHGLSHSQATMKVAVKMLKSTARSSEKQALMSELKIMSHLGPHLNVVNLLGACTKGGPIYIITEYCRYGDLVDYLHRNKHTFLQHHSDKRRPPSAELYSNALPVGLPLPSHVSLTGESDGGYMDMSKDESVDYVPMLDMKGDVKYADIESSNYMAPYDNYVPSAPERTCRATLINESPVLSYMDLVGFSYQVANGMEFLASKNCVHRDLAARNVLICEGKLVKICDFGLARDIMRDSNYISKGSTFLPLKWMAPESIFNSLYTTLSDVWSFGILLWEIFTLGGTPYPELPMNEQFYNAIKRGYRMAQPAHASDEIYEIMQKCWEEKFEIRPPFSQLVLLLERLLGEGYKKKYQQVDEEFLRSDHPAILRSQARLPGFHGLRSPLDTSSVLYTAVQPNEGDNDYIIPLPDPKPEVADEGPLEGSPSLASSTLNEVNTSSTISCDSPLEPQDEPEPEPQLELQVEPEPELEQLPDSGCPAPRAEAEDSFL
Chain of Vascular endothelial growth factor receptor 1 (P17948 whole entry): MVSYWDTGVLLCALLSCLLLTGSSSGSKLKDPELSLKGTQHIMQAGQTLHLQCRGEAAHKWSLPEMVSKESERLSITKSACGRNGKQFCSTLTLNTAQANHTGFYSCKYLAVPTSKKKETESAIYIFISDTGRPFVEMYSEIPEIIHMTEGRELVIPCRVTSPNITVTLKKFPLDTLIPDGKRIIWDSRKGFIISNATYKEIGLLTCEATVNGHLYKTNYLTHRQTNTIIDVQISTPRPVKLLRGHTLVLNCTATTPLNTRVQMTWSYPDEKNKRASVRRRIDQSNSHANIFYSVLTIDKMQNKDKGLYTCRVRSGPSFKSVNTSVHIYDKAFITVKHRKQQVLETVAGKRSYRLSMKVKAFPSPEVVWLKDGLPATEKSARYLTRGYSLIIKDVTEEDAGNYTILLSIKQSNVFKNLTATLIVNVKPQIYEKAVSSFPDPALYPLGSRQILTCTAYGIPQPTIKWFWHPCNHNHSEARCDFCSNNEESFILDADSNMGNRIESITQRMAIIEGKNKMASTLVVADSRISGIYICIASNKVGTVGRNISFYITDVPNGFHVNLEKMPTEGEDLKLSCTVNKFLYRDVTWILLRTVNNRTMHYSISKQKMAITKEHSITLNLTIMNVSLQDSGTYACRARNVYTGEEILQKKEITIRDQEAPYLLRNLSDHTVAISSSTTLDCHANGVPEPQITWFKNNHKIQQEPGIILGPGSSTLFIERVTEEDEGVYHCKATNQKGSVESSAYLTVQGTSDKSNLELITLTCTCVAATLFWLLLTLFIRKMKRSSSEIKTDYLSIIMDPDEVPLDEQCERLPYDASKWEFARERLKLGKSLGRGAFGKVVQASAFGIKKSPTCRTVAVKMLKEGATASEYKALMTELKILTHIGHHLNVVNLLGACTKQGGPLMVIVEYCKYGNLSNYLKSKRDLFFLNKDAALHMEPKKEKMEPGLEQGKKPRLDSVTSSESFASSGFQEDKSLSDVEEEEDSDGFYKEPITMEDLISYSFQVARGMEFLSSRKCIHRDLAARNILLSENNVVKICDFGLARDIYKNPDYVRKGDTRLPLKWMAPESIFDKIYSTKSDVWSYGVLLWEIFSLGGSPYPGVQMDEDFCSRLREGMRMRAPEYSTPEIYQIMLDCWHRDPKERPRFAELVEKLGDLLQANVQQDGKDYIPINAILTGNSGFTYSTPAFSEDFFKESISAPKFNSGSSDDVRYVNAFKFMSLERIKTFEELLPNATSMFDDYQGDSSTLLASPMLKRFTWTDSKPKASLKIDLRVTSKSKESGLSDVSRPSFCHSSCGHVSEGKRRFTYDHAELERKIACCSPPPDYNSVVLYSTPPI

What is called IC50 is the point on the concentration scale where inhibition reaches its midpoint. Regarding `CCN(CC)CCNC(=O)c1c(C)[nH]c2c1CCC/C2=C1/C(=O)Nc2ccc(Br)cc21`, the IC50 in series [1] amounted to 7.6 nM; in series [2], 2.3 nM; in series [3] it was 3.9 nM.
In the same order, the values of `Cc1[nH]c2c(c1C(=O)NCCN1CCOCC1)CCC/C2=C1/C(=O)Nc2ccc(F)cc21` are 13.2 nM, 2 nM and 1.6 nM.
The matching figures for `CCN(CC)CCCNC(=O)c1c(C)[nH]c2c1CCC/C2=C1/C(=O)Nc2ccc(F)cc21`: 21.3 nM, 9.9 nM and 2.7 nM.
In the same order, the values of `Cc1[nH]c2c(c1C(=O)NCCO)CCC/C2=C1/C(=O)Nc2ccc(F)cc21` are 12.7 nM, 1.4 nM and 1.1 nM.
Consider `CCN(CC)CCNC(=O)c1c(C)[nH]c2c1CCC/C2=C1/C(=O)Nc2cccc(F)c21`, for which the IC50 amounted to 62.1 nM in series [1], 43.1 nM in series [2] and 15 nM in series [3].
In the same order, the values of `Cc1[nH]c2c(c1C(=O)NCCCN1CCCC1)CCC/C2=C1/C(=O)Nc2ccc(F)cc21` are 64.8 nM, 10.7 nM and 3.8 nM.
`CCN(CC)CCNC(=O)c1c(C)[nH]c(/C=C2\C(=O)Nc3ccc(F)cc32)c1C` [SUNITINIB]: the half-inhibitory concentration (IC50) in the series with HepG2 amounted to 5610 nM; in the series “cells”, 4780 nM; in the series with T-24, 2440 nM; in the series on HT-29 it was 1470 nM; in the series with BXPC-3 [4] it was 3630 nM.
In general, bioavailability refers to the share of a dose that reaches the circulation, judged against a reference dose that is usually intravenous. Consider `CCN(CC)CCNC(=O)c1c(C)[nH]c2c1CCC/C2=C1/C(=O)Nc2ccc(F)cc21` [TAFETINIB], for which the IC50 in the series on HepG2 stood at 7270 nM; in the series “cells”, 6110 nM; in [5] it was 1.3 nM; with T-24, 3310 nM; in the series on HT-29, 1200 nM; with BXPC-3 [4] it was 520 nM. In addition, half-maximal inhibition in series [7] (IC50) was put at 1.3 nM. The same compound showed a bioavailability in series [6] of 90%.
Regarding `CCN(CC)CC(O)CNC(=O)c1c(C)[nH]c2c1CCC/C2=C1/C(=O)Nc2ccc(F)cc21` (configuration not stated), the figures for the IC50 in series [1], in series [2] and in series [3] were 19.3 nM, 4.1 nM and 2.5 nM, respectively.
In the same order, the values of `Cc1[nH]c2c(c1C(=O)NCCN(C)C)CCC/C2=C1/C(=O)Nc2ccc(F)cc21` are 22.7 nM, 6.6 nM and 3 nM.
In the case of `Cc1[nH]c2c(c1C(=O)N1CCOCC1)CCC/C2=C1/C(=O)Nc2ccc(F)cc21`, the IC50 in series [1] was determined as 40.1 nM; in series [2] it was 2.1 nM; in series [3], 1.1 nM.
In the same order, the values of `Cc1[nH]c2c(c1C(=O)NCCN1CCCCC1)CCC/C2=C1/C(=O)Nc2ccc(F)cc21` are 19.4 nM, 5.8 nM and 4.3 nM.
As for `CCN(CC)CCNC(=O)c1c(C)[nH]c2c1CCC/C2=C1/C(=O)Nc2ccccc21`, the IC50 was 7730 nM in the series on HepG2; 6730 nM in “cells”; 89.9 nM in [1]; 9.4 nM in [3]; 3560 nM in the series on T-24; 540 nM in the series with HT-29. Moreover, the IC50 with BXPC-3 [4] is 520 nM. The “Ratio IC50” value in the series on BXPC-3 [8] is 7.
Consider `CCN(CC)CCNC(=O)c1c(C)[nH]c2c1CCC/C2=C1/C(=O)Nc2ccc(OC)cc21`, for which the IC50 in series [1] is 101 nM; in [2] it was 35.5 nM; in series [3], 24.6 nM.
For `CCN(CC)CCNC(=O)c1c(C)[nH]c2c1CCC/C2=C1/C(=O)Nc2ccc(Cl)cc21`, the IC50 came to 3140 nM with HepG2; 2030 nM in “cells”; 12.1 nM in series [1]; 2.7 nM in series [2]; 2.6 nM in series [3]; 1830 nM in the series with T-24. Also, the results for the IC50 with HT-29 and with BXPC-3 [4] were 6480 nM and 1950 nM, respectively.
As to `CCN(CC)CCNC(=O)c1c(C)[nH]c2c1CCC/C2=C1/C(=O)Nc2ccc(C)cc21`, the IC50 in series [1] is 15.6 nM; in series [2] it was 4.1 nM; in [3], 2.3 nM.
As for `CCN(CC)CCNC(=O)c1c(C)[nH]c2c1CCC/C2=C1/C(=O)Nc2ccc(S(=O)(=O)N(CC)CC)cc21`, the IC50 in [1] was 396 nM; in series [2], 398 nM; in [3] it was 330 nM.
In the same order, the values of `Cc1[nH]c2c(c1C(=O)NCCN1CCCC1)CCC/C2=C1/C(=O)Nc2ccc(F)cc21` are 41.6 nM, 7.4 nM and 9.7 nM.
In the same order, the values of `Cc1[nH]c2c(c1C(=O)N1CCC[C@H]1CN1CCCC1)CCC/C2=C1/C(=O)Nc2ccc(F)cc21` are 118 nM, 8.5 nM and 11.8 nM.
Turning to `Cc1[nH]c2c(c1C(=O)NCCc1ccccn1)CCC/C2=C1/C(=O)Nc2ccc(F)cc21`, the IC50 was 161 nM in series [1], 37.7 nM in series [2] and 11.4 nM in series [3].
The matching figures for `CCN(CC)CCNC(=O)c1c(C)[nH]c2c1CCC/C2=C1/C(=O)Nc2ccc(C(=O)OC)cc21`: 70.3 nM, 256 nM and 167 nM.
For `Cc1[nH]c2c(c1C(=O)N1CCC(N3CCCCC3)CC1)CCC/C2=C1/C(=O)Nc2ccc(F)cc21`, the values for the IC50 in series [1], in series [2] and in series [3] were 40.7 nM, 7.8 nM and 8 nM, respectively.
In the same order, the values of `Cc1[nH]c2c(c1C(=O)NCCCN1CCOCC1)CCC/C2=C1/C(=O)Nc2ccc(F)cc21` are 18 nM, 5.7 nM and 1 nM.
On to `CCN(CC)CCNC(=O)c1c(C)[nH]c2c1CCC/C2=C1/C(=O)Nc2c(F)cccc21`, for which the IC50 in series [1] was 260 nM; in series [2] it was 181 nM; in [3], 112 nM.
The matching figures for `CCN(CC)CCNC(=O)c1c(C)[nH]c2c1CCC/C2=C1/C(=O)Nc2ccc([N+](=O)[O-])cc21`: 13.3 nM, 6.9 nM and 25.7 nM.
